We go through two molecules from patent publication US11230525B2, “Organic sulfur compound, method for preparing same, and pharmaceutical composition for preventing or treating cancer or an inflammatory disease, containing same as active ingredient” (SOOKMYUNG WOMENS UNIVERSITY INDUSTRY-ACADEMIC COOPERATION …, priority 2016, dated 2022).

The subject of assay [1] is renal cancer cell line (ACHN). Kind of assay: Cancer proliferation inhibitory activity (SRB, GI50), ACHN. As to conditions: Homo sapiens, 48 hours. The class given is cell-based. In a few lines:
(§1)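 48 h compound exposure, 0.1–10 μM, 0.1% DMSO control; RPMI 1640/10% FBS, 37 °C, 5% CO2. TCA fix, 0.4% SRB stain, 10 mM Tris (pH 10.5) extraction, OD540; GI50 fitted.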

The subject of assay [2] is breast cancer cell line (MDA-MB-231). In words: Cancer proliferation inhibitory activity (SRB, GI50), MDA-MB-231. The class given is cell-based. As to conditions: Homo sapiens, 48 hours. In a few lines: as §1
Assay [3] concerns colorectal cancer cell line (HCT-15). In words: Cancer proliferation inhibitory activity (SRB, GI50), HCT-15. The class given is cell-based. As to conditions: Homo sapiens, 48 hours. In a few lines:
as §1

Assay [4] concerns lung cancer cell line (NCl-H23). In words: Cancer proliferation inhibitory activity (SRB, GI50), NCI-H23. As to conditions: Homo sapiens, 48 hours. The class given is cell-based. In a few lines:
as §1

For assay [5], the target named is HDAC 1 (Homo sapiens, UniProt Q13547). Kind of assay: HDAC enzyme fluorescence assay, HDAC 1. The class given is biochemical. As to conditions: recombinant HDAC enzyme, Boc-Lys(acetyl)-AMC. On the procedure: (§2) Particularly, HDAC enzyme analysis was performed based on a uniform fluorescence emission assay. First, the compounds of examples of the present invention or comparative example 1 were diluted at different concentrations, which were treated to the analysis buffer containing 25 mM HEPES (pH 8.0), 137 mM NaCl, 1 mM MgCl2 and 2.7 mM KCL, followed by culture of the recombinant HDAC enzyme. 10 minutes later, Boc-Lys(acetyl)-AMC, the fluorescence inducing substrate, was added thereto, followed by further culture at 37° C. At this time, the concentration of the fluorescence inducing substrate and the culture time were adjusted according to the isotypes of the HDAC enzyme. The reaction was terminated by treating trypsin at room temperature for 20 minutes. The fluorescence intensity was measured using a fluorescence analyzer at an excitation wavelength of 380 nm and an emission wavelength of 460 nm, respectively. The inhibition rate was calculated from the measured fluorescence intensity of each well with comparing to that of the control well. IC50 of the compound was calculated by analyzing the dose-reaction inhibition curve.

The target in assay [6] is T1, HDAC 6 (Homo sapiens, UniProt Q9UBN7).
T1 sequence (Q9UBN7 1-1215): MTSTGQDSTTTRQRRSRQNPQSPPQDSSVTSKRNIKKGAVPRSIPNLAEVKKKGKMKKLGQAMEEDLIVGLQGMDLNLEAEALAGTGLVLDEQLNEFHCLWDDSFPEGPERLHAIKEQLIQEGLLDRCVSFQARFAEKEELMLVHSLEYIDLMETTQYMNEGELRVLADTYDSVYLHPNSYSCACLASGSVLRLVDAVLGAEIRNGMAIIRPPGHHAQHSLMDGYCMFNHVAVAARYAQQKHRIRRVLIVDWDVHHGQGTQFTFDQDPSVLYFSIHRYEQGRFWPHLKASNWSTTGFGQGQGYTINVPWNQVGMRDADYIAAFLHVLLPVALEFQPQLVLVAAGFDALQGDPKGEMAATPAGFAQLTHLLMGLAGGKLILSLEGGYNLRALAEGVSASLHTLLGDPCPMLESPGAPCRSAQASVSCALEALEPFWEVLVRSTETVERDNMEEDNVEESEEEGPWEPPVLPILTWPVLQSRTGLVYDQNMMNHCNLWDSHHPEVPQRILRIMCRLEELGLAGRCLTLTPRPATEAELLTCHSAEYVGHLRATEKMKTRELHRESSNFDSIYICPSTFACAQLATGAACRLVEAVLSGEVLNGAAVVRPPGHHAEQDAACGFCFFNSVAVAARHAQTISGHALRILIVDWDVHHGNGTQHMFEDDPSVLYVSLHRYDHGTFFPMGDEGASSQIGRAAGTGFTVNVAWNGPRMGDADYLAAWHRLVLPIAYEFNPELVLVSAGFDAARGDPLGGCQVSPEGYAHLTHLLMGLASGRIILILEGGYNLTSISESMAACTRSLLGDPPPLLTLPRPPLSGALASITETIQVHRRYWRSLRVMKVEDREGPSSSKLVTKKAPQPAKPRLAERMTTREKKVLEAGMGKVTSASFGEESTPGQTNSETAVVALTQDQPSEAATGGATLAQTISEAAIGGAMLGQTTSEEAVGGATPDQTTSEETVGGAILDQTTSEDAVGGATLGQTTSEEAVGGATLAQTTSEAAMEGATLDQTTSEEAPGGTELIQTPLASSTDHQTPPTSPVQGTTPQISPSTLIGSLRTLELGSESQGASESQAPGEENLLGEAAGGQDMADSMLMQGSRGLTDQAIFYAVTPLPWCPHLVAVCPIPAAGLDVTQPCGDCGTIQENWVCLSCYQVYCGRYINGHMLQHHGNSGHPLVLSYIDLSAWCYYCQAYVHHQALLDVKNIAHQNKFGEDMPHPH
Kind of assay: HDAC enzyme fluorescence assay, HDAC 6. The class given is biochemical. Conditions: recombinant HDAC enzyme, Boc-Lys(acetyl)-AMC. The method, then:
as §2

Sequence of HDAC 1 (Q13547 whole entry, species assumed): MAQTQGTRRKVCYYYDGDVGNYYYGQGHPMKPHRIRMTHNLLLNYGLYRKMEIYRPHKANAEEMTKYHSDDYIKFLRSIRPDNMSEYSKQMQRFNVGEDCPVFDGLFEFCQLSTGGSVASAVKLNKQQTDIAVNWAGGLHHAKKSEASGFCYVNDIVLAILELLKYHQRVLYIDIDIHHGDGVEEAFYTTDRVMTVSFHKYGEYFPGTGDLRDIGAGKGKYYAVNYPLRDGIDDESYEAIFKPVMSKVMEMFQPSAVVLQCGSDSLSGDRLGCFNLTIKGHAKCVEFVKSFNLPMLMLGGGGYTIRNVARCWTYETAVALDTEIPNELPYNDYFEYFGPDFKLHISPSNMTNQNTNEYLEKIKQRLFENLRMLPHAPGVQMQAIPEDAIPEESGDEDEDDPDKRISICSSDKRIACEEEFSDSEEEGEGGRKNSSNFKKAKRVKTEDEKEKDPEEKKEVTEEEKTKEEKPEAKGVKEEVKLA

Take `COc1ccc([S+]([O-])C/C=C\SSCc2ccccc2)cc1` (stereo not drawn) [Example 32, (Z)-1-benzyl-2-(3-(4-methoxyphenylsulfinyl)prop-1-enyl)disulfane]: the GI50 in assay [1] was found to be 3120 nM; in assay [2], 5880 nM; in assay [3], 1550 nM; in assay [4], 4370 nM. In addition, the IC50 in assay [5] was found to be 4550 nM; in assay [6], 550 nM.
Regarding `CCCSS/C=C\C[S+]([O-])c1cccc(OC)c1` (stereo not drawn) [Example 18, (Z)-1-(3-(3-methoxyphenylsulfinyl)prop-1-enyl)-2-propyldisulfane], the GI50 in assay [1] was 2060 nM; in assay [2], 2430 nM; in assay [3], 1340 nM; in assay [4], 1590 nM. For the same molecule, the figures for the IC50 in assay [5] and in assay [6] were 3520 nM and 1100 nM, respectively.

For orientation: GI50 means the concentration giving 50% growth inhibition. A high value points to lower sensitivity of the cells. As a reminder, the IC50 is the midpoint of a concentration-inhibition curve.
